Source: patent US20190060325A1, “STABILIZED SOLID DOSAGE FORM” (SHIONOGI & CO., LTD., priority 2016, published 2019)

Assay: Effect of excipients on suppression of related substance formation (compound (IV) alone or mixed with excipient, stored at 60° C. for two weeks, HPLC)
Format: physicochemical
Conditions: compound (IV) only; for Relative amount (%) of related substance C after storage of 60° C./2 W: 60° C. two weeks
Description: Effect of excipients on suppression of related substance formation was examined. The excipients were physically (dry) mixed or were wet-kneaded using purified water with the compound (IV) in designated ratios in Table 1. The wet-kneaded materials were dried at 60° C. with ventilation. The dried materials were subdivided in glass bottles and the bottles were capped. The capped samples were stored at 60° C. for two weeks and the effect on suppression of related substance formation was estimated by the increased amount of related substances.
The relative amounts of the related substances in a 25 mg tablet obtained in the following Examples were determined by HPLC under the following conditions.
Detector: Ultraviolet spectrophotometer (wavelength: 245 nm)
Column: Unison UK-C18, 3 μm, 4.6×100 mm (Imtakt)
Column temperature: 40° C. Solution A: 0.1% trifluoroacetic acid solution
Flow rate: About 1.0 mL/min
• Compound (IV): 9 to 10 min; • Related substance A: 20 to 21 min; • Related substance B: 21 to 22 min; • Related substance C: 22 to 23 min; • Related substance D: 28 to 29 min; • Related substance E: 36 to 37 min. Injection volume: 10 μL Analytical time: 45 min
Related substances of compound (IV) were calculated by the following equation.
As: Peak area of compound (IV) in a standard solution Ai: Peak area of individual related substance ΣAi: Sum of peak area of individual related substance

## C[C@@]1(c2cc(NC(=O)c3ccc(C#N)cn3)ccc2F)C=CSC(N)=N1 [compound (IV)]
milled, capped glass bottle, % peak area of HPLC
  Relative amount (%) of related substance C after storage of 60° C./2 W: 0.19%
milled, before storage
  Relative amount (%) of related substance C, Initial: (Initial: 0.05%)
wet-kneaded
  Relative amount (%) of related substance C after storage of 60° C./2 W: 0.16%
